Measurements: US20250332173A1, “COMPOUNDS AND METHODS FOR MODULATING NUCLEIC ACID SPLICING” (REMIX THERAPEUTICS INC., priority 2021, published 2025)
Counter-ions that a name gives are not always drawn. Like-named read-outs stand apart in the source and are kept apart here.

Key:
SMN2 mRNA = test: RT-qPCR splicing assay, SMN2 canonical junction (CJ) mRNA; assay type: cell-based, human; details: Homo sapiens; Table 5 panel; canonical junction qPCR; compound concentration having 50% response in CJ decrease; read-out: SMN2 IC50 (decrease in CJ mRNA levels)
Summary of the method: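 Read-out is canonical exon-exon junction mRNA quantified by RT-qPCR against a GAPDH, GUSB or PPIA control. Cells (A673 or K562) received compound for 24 h, top final dose 10 uM in an 11-point 3-fold series.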

HTT mRNA = test: RT-qPCR splicing assay, HTT canonical junction (CJ) and alternative junction (AJ) mRNA; assay type: cell-based, human; details: Homo sapiens; for AC50: increase in HTT alternative junction (AJ) mRNA, read-out: HTT AJ AC50
Summary of the method: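 A673 or K562 cells were treated for 24 h at 37 °C with an 11-point 3-fold compound dilution series (top final concentration 10 uM, DMSO ≤0.25%). After lysis, one-step TaqMan RT-qPCR quantified junction transcripts, normalized to PPIA for A673 or to GAPDH/GUSB for K562.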

[1] = decrease in HTT canonical junction (CJ) mRNA, RT-qPCR, read-out: HTT CJ IC50
[2] = Table 5 panel, canonical junction qPCR, compound concentration having 50% response in CJ decrease, read-out: HTT IC50 (decrease in CJ mRNA levels)

| IC50 (SMN2 mRNA) [µM] | IC50 (HTT mRNA; [1]) [µM] | IC50 (HTT mRNA; [2]) [µM] | Compound | AC50 (HTT mRNA; RT-qPCR) [µM] |
| --- | --- | --- | --- | --- |
| 1 to 10 | 1 to 10 | 1 to 10 | Cc1cc(-c2ccc3c(=O)n(N4CCN(C)CC4)cnc3c2)cc2cn(C)nc12 [Compound 175] | > 10 |
| 0.1 to 1 | 1 to 10 | 1 to 10 | Cc1cn2nc(-c3ccc4c(=O)n(C5CCN(C)CC5)cnc4c3)cc(C)c2n1 [Compound 176] | 1 to 10 |
| > 10 | > 10 | > 10 | CN1CCC(c2ccc3c(=O)n(-c4ccc5nn(C)cc5c4)cnc3c2)CC1 [Compound 177] | > 10 |
| > 10 | > 10 | > 10 | CN1CCN(c2ccc3c(=O)n(-c4ccc5cn(C)nc5c4)cnc3c2)CC1 [Compound 178] | > 10 |
| 1 to 10 | > 10 | > 10 | Cc1cc(-c2ccc3c(=O)n(C4CC(C)(C)NC(C)(C)C4)cnc3n2)cc2cn(C)nc12 [Compound 179] | > 10 |
| < 0.1 | 0.1 to 1 | 0.1 to 1 | Cc1cn2nc(-c3ccc4c(=O)n(C5CCNCC5)cnc4c3)cc(C)c2n1 [Compound 181] | 0.1 to 1 |
| 0.1 to 1 | 1 to 10 | 0.1 to 1 | Cc1cc(-c2ccc3c(=O)n(C4CCNC5(CC5)C4)ncc3c2)cc2cn(C)nc12 (stereo not drawn) [Compound 512] | 0.1 to 1 |
| 0.1 to 1 | 0.1 to 1 | 0.1 to 1 | Cc1nc2c(C)cc(-c3ccc4c(=O)n(C5CCNC6(CC6)C5)ncc4c3)cc2o1 (stereo not drawn) [Compound 513] | 0.1 to 1 |
| < 0.1 | < 0.1 | < 0.1 | COc1cc(-c2ccc3c(=O)n(C4CCNCC4)ccc3c2)nn2cc(C)nc12 [Compound 514, 6-(8-methoxy-2-methyl-imidazo[1,2-b]pyridazin-6-yl)-2-(4-piperidyl) isoquinolin-1-one; hydrochloride] | < 0.1 |
| < 0.1 | 0.1 to 1 | 0.1 to 1 | Cc1cn2nc(-c3ccc4c(=O)n(C5CCN(CCF)CC5)ncc4c3)cc(C)c2n1 [Compound 515] | 0.1 to 1 |
| 1 to 10 | 1 to 10 | 1 to 10 | Cc1cn2nc(-c3ccc4c(=O)n(C5CCNCC5)ccc4c3)cc(C(=O)O)c2n1 [Compound 516, 2-methyl-6-[1-oxo-2-(4-piperidyl)-6-isoquinolyl]imidazo[1,2-b]pyridazine-8-carboxylic acid] | 1 to 10 |
| < 0.1 | 1 to 10 | 1 to 10 | COC(=O)c1cc(-c2ccc3c(=O)n(C4CCNCC4)ccc3c2)nn2cc(C)nc12 [Compound 517, methyl 2-methyl-6-[1-oxo-2-(4-piperidyl)-6-isoquinolyl]imidazo[1,2-b]pyridazine-8-carboxylate] | 1 to 10 |
| 0.1 to 1 | > 10 | > 10 | CNC(=O)c1cc(-c2ccc3c(=O)n(C4CCNCC4)ccc3c2)nn2cc(C)nc12 [Compound 518, N, 2-dimethyl-6-[1-oxo-2-(4-piperidyl)-6-isoquinolyl]imidazo[1,2-b]pyridazine-8-carboxamide] | > 10 |
| < 0.1 | < 0.1 | < 0.1 | Cc1cn2nc(-c3ccc4c(=O)n(C5CCNCC5)ccc4c3)cc(Oc3ccccc3)c2n1 [Compound 519, 6-(2-methyl-8-phenoxy-imidazo[1,2-b]pyridazin-6-yl)-2-(4-piperidyl)isoquinolin-1-one] | < 0.1 |
| < 0.1 | 0.1 to 1 | 0.1 to 1 | Cc1cn2nc(-c3ccc4c(=O)n(C5CCNCC5)ccc4c3)cc(CC#N)c2n1 [Compound 520, 2-[2-methyl-6-[1-oxo-2-(4-piperidyl)-6-isoquinolyl]imidazo[1,2-b]pyridazin-8-yl]acetonitrile] | 0.1 to 1 |
| 1 to 10 | 1 to 10 | 1 to 10 | Cn1ccc2c(cnn2-c2ccc3c(=O)n(C4CCNCC4)ccc3c2)c1=O [Compound 521] | 1 to 10 |

| IC50 (SMN2 mRNA) [µM] | IC50 (HTT mRNA; [1]) [µM] | IC50 (HTT mRNA; [2]) [µM] | Compound | AC50 (HTT mRNA; RT-qPCR) [µM] |
| --- | --- | --- | --- | --- |
| 1 to 10 | > 10 | > 10 | Cn1ccc2nn(-c3ccc4c(=O)n(C5CCNCC5)ccc4c3)cc2c1=O [Compound 522, 6-{5-methyl-4-oxopyrazolo[4,3-c]pyridin-2-yl}-2-(piperidin-4-yl)isoquinolin-1-one] | > 10 |
| 0.1 to 1 | 1 to 10 | > 10 | Cc1cn2nc(-c3ccc4c(=O)n(C5CCNCC5)ccc4c3)cc(C(N)=O)c2n1 [Compound 523, 2-methyl-6-[1-oxo-2-(4-piperidyl)-6-isoquinolyl]imidazo[1,2-b]pyridazine-8-carboxamide] | > 10 |
| > 10 | > 10 | > 10 | Cc1cn2nc(-c3ccc4c(=O)n(C5CCNCC5)ccc4c3)cc(C(=O)N(C)C)c2n1 [Compound 524, N, N, 2-trimethyl-6-[1-oxo-2-(4-piperidyl)-6-isoquinolyl]imidazo[1,2-b]pyridazine-8-carboxamide] | > 10 |
| < 0.1 | 0.1 to 1 | < 0.1 | Cc1cn2nc(-c3ccc4c(=O)n(C5CCNCC5)ccc4c3)cc(CO)c2n1 [Compound 525, 6-[8-(hydroxymethyl)-2-methyl-imidazo[1,2-b]pyridazin-6-yl]-2-(4-piperidyl) isoquinolin-1-one] | < 0.1 |
| < 0.1 | 0.1 to 1 | 0.1 to 1 | Cc1cn2nc(-c3ccc4c(=O)n(C5CCNCC5)ccc4c3)cc(OCc3ccccc3)c2n1 [Compound 526, 6-(8-benzyloxy-2-methyl-imidazo[1,2-b]pyridazin-6-yl)-2-(4-piperidyl) isoquinolin-1-one] | 0.1 to 1 |
| < 0.1 | 0.1 to 1 | 0.1 to 1 | COC(=O)Cc1cc(-c2ccc3c(=O)n(C4CCNCC4)ccc3c2)nn2cc(C)nc12 [Compound 527] | 0.1 to 1 |
| < 0.1 | 1 to 10 | 0.1 to 1 | Cc1cn2nc(-c3ccc4c(=O)n(C5CCNCC5)ccc4c3)cc(CC(N)=O)c2n1 [Compound 528, 2-(2-methyl-6-(1-oxo-2-(piperidin-4-yl)-1,2-dihydroisoquinolin-6-yl)imidazo[1,2-b]pyridazin-8-yl) acetamide] | 0.1 to 1 |
| < 0.1 | 1 to 10 | 0.1 to 1 | CCOC(=O)c1cc(-c2ccc3c(=O)n(C4CCNCC4)ccc3c2)nn2cc(C)nc12 [Compound 529, ethyl 2-methyl-6-[1-oxo-2-(4-piperidyl)-6-isoquinolyl]imidazo[1,2-b]pyridazine-8-carboxylate] | 0.1 to 1 |
| > 10 | > 10 | > 10 | Cn1cc2c(=O)n(-c3ccc4c(=O)n(C5CCNCC5)ccc4c3)ccc2n1 [Compound 530, 6-{2-methyl-4-oxopyrazolo[4,3-c]pyridin-5-yl}-2-(piperidin-4-yl)isoquinolin-1-one] | > 10 |
| < 0.1 | 0.1 to 1 | < 0.1 | Cc1cn2nc(-c3ccc4c(=O)n(C5CCNCC5)ccc4c3)cc(CC(=O)O)c2n1 [Compound 531, 2-[2-methyl-6-[1-oxo-2-(4-piperidyl)-6-isoquinolyl]imidazo[1,2-b]pyridazin-8-yl]acetic acid] | < 0.1 |
| < 0.1 | 0.1 to 1 | 0.1 to 1 | Cc1cn2nc(-c3ccc4c(=O)n(C5CCNCC5)ccc4c3)cc(CCO)c2n1 [Compound 533, 6-[8-(2-hydroxyethyl)-2-methyl-imidazo[1,2-b]pyridazin-6-yl]-2-(4-piperidyl)isoquinolin-1-one] | 0.1 to 1 |
| < 0.1 | 1 to 10 | 1 to 10 | CNC(=O)Cc1cc(-c2ccc3c(=O)n(C4CCNCC4)ccc3c2)nn2cc(C)nc12 [Compound 534, N-methyl-2-[2-methyl-6-[1-oxo-2-(4-piperidyl)-6-isoquinolyl]imidazo[1,2-b]pyridazin-8-yl]acetamide] | 1 to 10 |
| < 0.1 | 1 to 10 | 1 to 10 | Cc1cn2nc(-c3ccc4c(=O)n(C5CCNCC5)ccc4c3)cc(Cc3nnc[nH]3)c2n1 [Compound 535, 6-[2-methyl-8-(4H-1,2,4-triazol-3-ylmethyl)imidazo[1,2-b]pyridazin-6-yl]-2-(4-piperidyl) isoquinolin-1-one] | 1 to 10 |
| 1 to 10 | > 10 | > 10 | Cc1cn2nc(-c3ccc4c(=O)n(C5CCNCC5)ccc4c3)cc(Cc3nnn[nH]3)c2n1 [Compound 536, 6-[2-methyl-8-(1H-tetrazol-5-ylmethyl)imidazo[1,2-b]pyridazin-6-yl]-2-(4-piperidyl) isoquinolin-1-one] | > 10 |
| < 0.1 | < 0.1 | < 0.1 | CCN1CCC(n2ncc3cc(-c4cc(C)c5nc(C)cn5n4)cc(F)c3c2=O)CC1 [Compound 537] | < 0.1 |
| < 0.1 | < 0.1 | < 0.1 | Cc1cn2nc(-c3cc(F)c4c(=O)n(C5CCN(CCF)CC5)ncc4c3)cc(C)c2n1 [Compound 538] | < 0.1 |

| Compound | IC50 (SMN2 mRNA) [µM] | IC50 (HTT mRNA; [1]) [µM] | IC50 (HTT mRNA; [2]) [µM] | AC50 (HTT mRNA; RT-qPCR) [µM] |
| --- | --- | --- | --- | --- |
| CN(c1ccc2c(=O)n(-c3ccc4nn(C)cc4c3)cnc2c1)C1CCNCC1 [Compound 180] | > 10 | > 10 | > 10 | > 10 |
